Experimental findings from ChEMBL document CHEMBL5678818, “Discovery of potent SOS1 inhibitors that block RAS activation via disruption of the RAS-SOS1 interaction” (Proc Natl Acad Sci U S A, 2019) are described below.

Test [1] has as its target T1, Son of sevenless homolog 1 (Homo sapiens, UniProt Q07889).
T1 sequence (Q07889 whole entry): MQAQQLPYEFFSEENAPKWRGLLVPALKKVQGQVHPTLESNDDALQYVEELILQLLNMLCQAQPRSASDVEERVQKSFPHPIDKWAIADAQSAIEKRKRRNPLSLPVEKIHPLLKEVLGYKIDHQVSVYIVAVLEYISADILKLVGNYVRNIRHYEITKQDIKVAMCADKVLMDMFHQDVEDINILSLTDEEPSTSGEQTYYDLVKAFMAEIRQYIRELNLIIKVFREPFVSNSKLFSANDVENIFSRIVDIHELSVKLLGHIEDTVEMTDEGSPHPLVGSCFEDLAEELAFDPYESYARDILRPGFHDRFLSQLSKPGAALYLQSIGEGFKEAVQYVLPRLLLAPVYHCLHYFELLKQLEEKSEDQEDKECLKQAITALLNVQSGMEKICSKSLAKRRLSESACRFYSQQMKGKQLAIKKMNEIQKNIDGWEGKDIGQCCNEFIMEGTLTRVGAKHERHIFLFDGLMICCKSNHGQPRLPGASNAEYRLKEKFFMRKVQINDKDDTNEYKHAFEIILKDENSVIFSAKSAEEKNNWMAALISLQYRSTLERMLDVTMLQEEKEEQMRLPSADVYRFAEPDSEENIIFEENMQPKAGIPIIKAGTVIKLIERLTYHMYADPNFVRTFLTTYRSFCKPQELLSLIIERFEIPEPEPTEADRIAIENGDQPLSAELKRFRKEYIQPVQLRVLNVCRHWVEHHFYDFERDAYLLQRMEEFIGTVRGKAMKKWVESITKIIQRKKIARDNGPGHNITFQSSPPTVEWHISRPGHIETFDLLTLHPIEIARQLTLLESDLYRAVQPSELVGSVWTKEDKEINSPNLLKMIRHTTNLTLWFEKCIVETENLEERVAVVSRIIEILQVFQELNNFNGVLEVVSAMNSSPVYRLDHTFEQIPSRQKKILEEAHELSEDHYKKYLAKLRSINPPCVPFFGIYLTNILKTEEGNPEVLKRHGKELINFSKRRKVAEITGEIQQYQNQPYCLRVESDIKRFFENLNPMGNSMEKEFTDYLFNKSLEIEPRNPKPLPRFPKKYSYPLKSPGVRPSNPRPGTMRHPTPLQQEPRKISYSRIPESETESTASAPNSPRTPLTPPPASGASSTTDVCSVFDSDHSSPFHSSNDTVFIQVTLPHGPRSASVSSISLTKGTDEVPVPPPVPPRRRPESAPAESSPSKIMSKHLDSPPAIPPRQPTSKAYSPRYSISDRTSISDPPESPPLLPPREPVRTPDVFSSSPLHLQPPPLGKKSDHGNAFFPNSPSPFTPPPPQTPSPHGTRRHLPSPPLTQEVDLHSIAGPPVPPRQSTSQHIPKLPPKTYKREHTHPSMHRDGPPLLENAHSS
Kind of test: Inhibition of SOS1 in human Calu-1 cells assessed as reduction in pERK level incubated for 24 hrs by HTRF analysis. Format: cell-based.

Test [2] addresses 1-phosphatidylinositol 3-phosphate 5-kinase (Homo sapiens) (UniProt Q9Y2I7). Kind of test: Inhibition of PIKFYVE (unknown origin) assessed as residual activity at 1000 nM by KINOMEscan analysis relative to control.
The target of test [3] is Activin receptor type-1-like (Homo sapiens) (UniProt P37023). Kind of test: Inhibition of ACVRL1 (unknown origin) assessed as residual activity at 100 nM by KINOMEscan analysis relative to control.
Activin receptor type-1-like (Homo sapiens), sequence (P37023 whole entry): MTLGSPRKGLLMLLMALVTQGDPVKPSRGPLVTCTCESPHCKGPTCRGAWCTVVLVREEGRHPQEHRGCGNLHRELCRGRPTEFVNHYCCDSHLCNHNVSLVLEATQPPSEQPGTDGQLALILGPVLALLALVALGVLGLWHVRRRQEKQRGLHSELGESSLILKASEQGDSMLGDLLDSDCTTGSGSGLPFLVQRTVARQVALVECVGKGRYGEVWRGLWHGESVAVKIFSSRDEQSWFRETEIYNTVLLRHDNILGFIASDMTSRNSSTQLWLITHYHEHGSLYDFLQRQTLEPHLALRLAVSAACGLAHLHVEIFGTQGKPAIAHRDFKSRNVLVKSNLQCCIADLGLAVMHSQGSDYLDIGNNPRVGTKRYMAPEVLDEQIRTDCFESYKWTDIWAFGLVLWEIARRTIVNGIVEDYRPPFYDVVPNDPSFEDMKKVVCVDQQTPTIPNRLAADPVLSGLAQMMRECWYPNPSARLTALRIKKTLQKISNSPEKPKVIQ
Test [4] has as its target Fibroblast growth factor receptor 3 (Homo sapiens) (UniProt P22607). The test is described as follows: Inhibition of FGFR3 (unknown origin) assessed as residual activity at 100 nM by KINOMEscan analysis relative to control.
The target of test [5] is Serine/threonine-protein kinase 10 (Homo sapiens) (UniProt O94804). The test is described as follows: Inhibition of LOK (unknown origin) assessed as residual activity at 100 nM by KINOMEscan analysis relative to control.
Serine/threonine-protein kinase 10 (Homo sapiens), sequence (O94804 whole entry, looked up): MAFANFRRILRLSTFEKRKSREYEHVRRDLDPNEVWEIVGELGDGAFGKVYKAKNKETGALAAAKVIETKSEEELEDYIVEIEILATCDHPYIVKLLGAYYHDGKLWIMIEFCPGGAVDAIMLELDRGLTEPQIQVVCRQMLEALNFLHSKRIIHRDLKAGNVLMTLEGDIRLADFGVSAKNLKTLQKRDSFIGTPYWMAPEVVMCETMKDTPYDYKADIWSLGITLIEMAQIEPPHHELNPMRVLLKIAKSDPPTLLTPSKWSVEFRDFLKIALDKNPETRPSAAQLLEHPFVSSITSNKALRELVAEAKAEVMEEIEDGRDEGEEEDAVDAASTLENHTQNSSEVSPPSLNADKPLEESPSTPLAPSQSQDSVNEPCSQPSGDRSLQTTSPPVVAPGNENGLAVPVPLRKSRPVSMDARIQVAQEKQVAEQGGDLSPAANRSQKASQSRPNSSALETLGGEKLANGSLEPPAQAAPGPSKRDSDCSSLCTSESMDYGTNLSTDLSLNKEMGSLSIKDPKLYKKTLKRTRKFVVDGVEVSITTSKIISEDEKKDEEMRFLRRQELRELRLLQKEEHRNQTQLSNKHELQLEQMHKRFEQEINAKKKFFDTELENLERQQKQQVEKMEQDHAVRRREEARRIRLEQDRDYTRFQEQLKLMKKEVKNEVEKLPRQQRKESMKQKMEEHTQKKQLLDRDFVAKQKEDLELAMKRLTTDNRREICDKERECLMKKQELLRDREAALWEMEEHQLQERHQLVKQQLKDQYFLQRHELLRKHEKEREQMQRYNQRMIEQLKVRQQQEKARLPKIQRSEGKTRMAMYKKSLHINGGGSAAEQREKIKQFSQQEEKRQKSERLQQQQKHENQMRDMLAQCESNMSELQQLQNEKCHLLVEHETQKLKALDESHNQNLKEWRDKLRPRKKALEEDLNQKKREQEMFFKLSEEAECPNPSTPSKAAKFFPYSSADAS
The target in test [6] is T2, Myosin-IIIb (Homo sapiens) (UniProt Q8WXR4).
T2 sequence (whole entry): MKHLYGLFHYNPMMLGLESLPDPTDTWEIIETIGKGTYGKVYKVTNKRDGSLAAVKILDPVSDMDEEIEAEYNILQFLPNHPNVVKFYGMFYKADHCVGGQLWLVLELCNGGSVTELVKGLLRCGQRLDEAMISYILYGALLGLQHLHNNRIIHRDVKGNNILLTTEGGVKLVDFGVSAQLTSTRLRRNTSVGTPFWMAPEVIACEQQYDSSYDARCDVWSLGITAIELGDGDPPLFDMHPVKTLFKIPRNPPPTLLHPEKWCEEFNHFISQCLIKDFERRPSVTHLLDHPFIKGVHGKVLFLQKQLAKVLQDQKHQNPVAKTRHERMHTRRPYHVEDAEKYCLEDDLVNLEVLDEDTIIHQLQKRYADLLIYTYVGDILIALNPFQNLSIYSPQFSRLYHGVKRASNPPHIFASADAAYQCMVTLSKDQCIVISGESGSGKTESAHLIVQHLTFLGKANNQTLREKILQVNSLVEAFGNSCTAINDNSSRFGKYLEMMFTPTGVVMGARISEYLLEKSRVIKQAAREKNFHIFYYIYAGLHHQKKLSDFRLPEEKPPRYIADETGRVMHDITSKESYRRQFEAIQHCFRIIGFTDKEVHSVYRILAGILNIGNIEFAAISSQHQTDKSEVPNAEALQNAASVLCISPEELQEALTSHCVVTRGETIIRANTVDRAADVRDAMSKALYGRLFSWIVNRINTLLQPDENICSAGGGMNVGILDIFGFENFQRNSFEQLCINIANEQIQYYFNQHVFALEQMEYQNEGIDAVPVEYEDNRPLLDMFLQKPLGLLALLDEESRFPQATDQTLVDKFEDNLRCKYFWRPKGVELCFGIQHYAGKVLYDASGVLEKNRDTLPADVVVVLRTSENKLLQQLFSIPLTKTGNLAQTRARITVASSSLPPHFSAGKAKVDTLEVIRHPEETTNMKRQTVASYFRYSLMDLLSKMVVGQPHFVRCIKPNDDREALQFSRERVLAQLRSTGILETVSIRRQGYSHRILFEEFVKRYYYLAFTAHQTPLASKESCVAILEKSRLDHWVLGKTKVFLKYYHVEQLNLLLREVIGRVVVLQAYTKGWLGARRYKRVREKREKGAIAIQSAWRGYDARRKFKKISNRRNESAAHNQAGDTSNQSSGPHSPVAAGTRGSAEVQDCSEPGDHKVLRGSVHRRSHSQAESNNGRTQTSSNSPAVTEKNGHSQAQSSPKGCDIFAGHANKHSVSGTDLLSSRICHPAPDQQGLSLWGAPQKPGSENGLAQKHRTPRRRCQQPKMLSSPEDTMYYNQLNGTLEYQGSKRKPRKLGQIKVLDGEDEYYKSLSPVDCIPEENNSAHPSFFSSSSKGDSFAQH
Kind of test: Inhibition of MYO3B (unknown origin) assessed as residual activity at 100 nM by KINOMEscan analysis relative to control.

Fibroblast growth factor receptor 3 (Homo sapiens), sequence (P22607 23-806 limits assumed): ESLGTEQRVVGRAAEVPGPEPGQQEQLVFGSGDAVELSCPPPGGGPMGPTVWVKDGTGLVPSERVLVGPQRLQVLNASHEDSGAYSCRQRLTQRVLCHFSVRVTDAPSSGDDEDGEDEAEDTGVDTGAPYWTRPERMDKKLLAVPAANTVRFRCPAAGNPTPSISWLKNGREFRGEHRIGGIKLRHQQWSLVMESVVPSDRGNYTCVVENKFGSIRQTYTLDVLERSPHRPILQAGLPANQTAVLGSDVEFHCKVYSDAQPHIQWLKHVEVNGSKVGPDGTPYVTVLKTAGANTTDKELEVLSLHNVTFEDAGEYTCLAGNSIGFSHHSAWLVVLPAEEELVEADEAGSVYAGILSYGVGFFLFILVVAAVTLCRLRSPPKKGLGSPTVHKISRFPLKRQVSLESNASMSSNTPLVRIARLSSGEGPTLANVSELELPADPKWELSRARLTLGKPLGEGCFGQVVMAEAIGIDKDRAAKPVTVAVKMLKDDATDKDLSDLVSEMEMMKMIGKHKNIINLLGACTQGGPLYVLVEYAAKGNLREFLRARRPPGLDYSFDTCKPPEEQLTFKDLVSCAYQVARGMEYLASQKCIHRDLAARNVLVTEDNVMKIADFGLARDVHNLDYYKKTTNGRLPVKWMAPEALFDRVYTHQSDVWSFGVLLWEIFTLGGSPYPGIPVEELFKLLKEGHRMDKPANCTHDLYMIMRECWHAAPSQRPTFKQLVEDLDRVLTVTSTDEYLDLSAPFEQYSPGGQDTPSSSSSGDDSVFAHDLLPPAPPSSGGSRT
1-phosphatidylinositol 3-phosphate 5-kinase (Homo sapiens), sequence (Q9Y2I7 whole entry): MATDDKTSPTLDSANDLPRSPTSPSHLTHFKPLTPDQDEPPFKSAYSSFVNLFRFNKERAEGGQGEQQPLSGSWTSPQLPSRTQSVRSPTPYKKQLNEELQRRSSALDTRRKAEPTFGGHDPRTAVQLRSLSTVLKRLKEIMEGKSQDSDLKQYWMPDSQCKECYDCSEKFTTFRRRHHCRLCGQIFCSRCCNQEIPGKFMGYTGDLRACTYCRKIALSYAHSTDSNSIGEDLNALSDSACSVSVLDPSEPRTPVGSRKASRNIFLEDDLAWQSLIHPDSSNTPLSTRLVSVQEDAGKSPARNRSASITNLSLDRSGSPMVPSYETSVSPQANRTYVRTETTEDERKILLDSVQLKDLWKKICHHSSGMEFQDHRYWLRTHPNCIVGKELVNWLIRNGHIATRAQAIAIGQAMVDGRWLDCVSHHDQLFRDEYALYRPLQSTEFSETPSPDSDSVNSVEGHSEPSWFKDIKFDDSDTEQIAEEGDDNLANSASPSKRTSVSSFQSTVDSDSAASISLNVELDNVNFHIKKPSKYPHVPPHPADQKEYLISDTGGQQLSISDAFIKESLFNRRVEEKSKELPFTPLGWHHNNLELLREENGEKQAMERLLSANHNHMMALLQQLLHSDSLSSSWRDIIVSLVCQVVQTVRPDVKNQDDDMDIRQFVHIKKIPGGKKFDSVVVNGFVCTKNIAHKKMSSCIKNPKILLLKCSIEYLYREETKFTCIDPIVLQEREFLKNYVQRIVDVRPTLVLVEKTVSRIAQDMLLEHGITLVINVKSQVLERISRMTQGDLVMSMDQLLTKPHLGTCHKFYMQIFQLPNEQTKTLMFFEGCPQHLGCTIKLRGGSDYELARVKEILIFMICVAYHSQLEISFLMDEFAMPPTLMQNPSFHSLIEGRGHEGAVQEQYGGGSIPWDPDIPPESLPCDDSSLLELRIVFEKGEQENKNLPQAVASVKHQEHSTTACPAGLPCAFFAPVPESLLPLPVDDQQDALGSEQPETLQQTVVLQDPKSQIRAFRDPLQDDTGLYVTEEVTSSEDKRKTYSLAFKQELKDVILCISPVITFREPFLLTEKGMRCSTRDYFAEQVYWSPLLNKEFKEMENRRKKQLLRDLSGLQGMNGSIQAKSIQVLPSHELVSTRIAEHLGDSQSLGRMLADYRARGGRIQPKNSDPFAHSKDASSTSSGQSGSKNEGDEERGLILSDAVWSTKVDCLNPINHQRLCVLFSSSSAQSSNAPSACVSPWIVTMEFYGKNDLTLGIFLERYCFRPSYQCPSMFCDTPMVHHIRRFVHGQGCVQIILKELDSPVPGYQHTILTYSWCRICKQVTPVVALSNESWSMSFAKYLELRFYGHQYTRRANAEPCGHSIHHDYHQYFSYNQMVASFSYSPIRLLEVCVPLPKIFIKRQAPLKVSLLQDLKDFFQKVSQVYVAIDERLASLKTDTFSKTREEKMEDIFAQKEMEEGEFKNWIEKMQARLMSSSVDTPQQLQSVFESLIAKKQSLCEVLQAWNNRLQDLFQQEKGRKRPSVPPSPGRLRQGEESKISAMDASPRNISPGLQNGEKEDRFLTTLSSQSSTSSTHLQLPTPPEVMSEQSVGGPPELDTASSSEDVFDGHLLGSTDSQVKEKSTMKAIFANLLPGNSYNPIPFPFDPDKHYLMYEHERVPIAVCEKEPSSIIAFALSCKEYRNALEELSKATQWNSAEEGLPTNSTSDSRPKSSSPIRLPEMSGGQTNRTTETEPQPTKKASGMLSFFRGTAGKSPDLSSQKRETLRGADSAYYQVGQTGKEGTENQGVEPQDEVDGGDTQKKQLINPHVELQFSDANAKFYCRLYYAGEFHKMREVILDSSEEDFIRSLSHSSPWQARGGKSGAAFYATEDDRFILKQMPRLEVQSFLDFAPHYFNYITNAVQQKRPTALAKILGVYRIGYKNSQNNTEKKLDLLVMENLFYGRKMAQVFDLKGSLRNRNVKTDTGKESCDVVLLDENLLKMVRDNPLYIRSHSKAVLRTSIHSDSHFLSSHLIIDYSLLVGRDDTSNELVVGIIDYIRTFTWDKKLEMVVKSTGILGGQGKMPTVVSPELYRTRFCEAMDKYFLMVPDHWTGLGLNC

Take `COc1cc2nc(C)nc(NC(C)c3ccc(-c4cnc5n4CCC5)s3)c2cc1OC` (stereo unspecified): the IC50 in test [1] turned out to be 4.46 µM.

In the case of `COc1cc2nc(C)nc(N[C@H](C)c3cccc(-c4cn[nH]c4)c3)c2cc1OC`, the Activity in test [2] turned out to be 68%.

On to `COc1cc2ncnc(N[C@H](C)c3cccc4ccccc34)c2cc1OC`, for which the Activity in test [3] came out at 82%; in test [4], 72%; in test [5], 98%; in test [6] it was 98%.

As a reminder, the IC50 is the concentration needed to halve the response being measured.
